Values of other authors, collected in patent US9597322B2, “Otamixaban for use in the treatment of non-ST elevation acute coronary syndrome in patients planned to undergo coronary artery bypass grafting” (SANOFI, priority 2012, dated 2017).
Like-named read-outs stand apart in the source and are kept apart here.

What was measured:
free factor Xa = free factor Xa (Homo sapiens, UniProt P00742); details: direct, independent of antithrombin III; cited from earlier work
[1] = biological target: factor Xa assembled in the prothrombinase complex (Factor Xa, Factor Va, calcium and phospholipid) (Homo sapiens, UniProt P00742); details: direct, independent of antithrombin III; cited from earlier work
factor Xa assembled in the prothrombinase complex (Factor Xa, Factor Va, calcium and phospholipid), sequence (P00742 235-488 limits assumed): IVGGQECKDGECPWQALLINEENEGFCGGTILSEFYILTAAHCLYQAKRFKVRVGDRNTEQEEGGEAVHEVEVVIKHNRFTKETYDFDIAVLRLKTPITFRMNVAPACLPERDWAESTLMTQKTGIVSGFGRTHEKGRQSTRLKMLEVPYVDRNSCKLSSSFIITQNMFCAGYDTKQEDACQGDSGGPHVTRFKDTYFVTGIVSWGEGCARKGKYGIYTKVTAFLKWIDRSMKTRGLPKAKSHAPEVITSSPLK
factor Xa assembled in the prothrombinase complex (Factor Xa, Factor Va, calcium and phospholipid), sequence (P00742 41-179 partner limits assumed): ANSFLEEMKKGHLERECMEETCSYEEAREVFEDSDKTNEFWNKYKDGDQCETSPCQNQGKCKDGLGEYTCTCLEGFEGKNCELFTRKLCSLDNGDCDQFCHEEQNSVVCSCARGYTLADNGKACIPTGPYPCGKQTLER
factor Xa assembled in the prothrombinase complex (Factor Xa, Factor Va, calcium and phospholipid), sequence (P12259 29-737 partner limits assumed): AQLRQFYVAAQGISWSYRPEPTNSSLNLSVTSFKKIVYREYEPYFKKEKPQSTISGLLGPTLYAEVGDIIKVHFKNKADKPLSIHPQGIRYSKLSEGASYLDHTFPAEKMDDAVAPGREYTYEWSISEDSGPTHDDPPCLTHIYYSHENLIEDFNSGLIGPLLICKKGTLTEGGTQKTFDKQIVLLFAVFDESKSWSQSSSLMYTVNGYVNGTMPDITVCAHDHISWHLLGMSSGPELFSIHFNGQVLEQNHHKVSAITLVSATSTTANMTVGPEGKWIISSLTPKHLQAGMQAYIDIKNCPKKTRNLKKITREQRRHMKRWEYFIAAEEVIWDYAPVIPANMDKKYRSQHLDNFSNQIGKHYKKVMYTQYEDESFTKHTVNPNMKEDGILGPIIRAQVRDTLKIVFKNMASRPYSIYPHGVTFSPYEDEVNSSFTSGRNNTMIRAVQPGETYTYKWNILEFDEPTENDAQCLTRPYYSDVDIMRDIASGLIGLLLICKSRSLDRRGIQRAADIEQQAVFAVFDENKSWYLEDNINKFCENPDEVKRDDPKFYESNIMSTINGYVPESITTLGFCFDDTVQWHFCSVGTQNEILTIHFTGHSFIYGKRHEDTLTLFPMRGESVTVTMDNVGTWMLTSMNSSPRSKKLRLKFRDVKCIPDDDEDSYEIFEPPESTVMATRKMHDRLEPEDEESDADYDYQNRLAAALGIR
factor Xa assembled in the prothrombinase complex (Factor Xa, Factor Va, calcium and phospholipid), sequence (P12259 1574-2224 partner limits assumed): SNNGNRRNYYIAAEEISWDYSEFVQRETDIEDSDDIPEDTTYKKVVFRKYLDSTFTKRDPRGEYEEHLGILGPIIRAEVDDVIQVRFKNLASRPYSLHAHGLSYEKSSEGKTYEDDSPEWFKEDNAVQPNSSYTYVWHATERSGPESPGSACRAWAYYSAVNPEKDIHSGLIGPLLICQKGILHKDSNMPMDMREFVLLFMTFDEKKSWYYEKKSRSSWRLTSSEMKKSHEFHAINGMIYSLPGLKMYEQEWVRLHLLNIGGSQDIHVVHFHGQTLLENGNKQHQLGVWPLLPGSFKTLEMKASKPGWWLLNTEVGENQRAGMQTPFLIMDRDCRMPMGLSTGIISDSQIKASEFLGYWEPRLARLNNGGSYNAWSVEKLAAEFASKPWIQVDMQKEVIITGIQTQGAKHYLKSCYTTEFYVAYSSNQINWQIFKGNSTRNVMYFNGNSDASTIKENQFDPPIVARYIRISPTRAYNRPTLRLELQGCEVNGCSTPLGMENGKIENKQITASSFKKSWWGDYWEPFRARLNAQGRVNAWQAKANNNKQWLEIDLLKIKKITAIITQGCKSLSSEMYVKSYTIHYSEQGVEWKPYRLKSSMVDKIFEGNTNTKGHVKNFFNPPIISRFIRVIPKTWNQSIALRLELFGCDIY

thrombosis [2] = details: rodent; cited from earlier work
thrombosis [3] = details: canine; cited from earlier work
thrombosis [4] = details: porcine; cited from earlier work
[5] = tested on: prothrombin fragments 1+2; details: highest dose regimen; Cohen et al. 2007; cited from earlier work
factor Xa = biological target: T1, factor Xa (Homo sapiens, UniProt P00742); details: patients with stable coronary artery disease on usual comedication, some with mild renal impairment; Hinder et al. 2006; cited from earlier work
T1 construct: host or cells: blood of patients (endogenous)
T1 sequence (P00742 235-488 limits assumed): as the sequence (P00742 235-488 limits assumed) above
T1 sequence (P00742 41-179 partner limits assumed): as the sequence (P00742 41-179 partner limits assumed) above

free factor Xa, sequence (P00742 235-488 limits assumed): as the sequence (P00742 235-488 limits assumed) above
free factor Xa, sequence (P00742 41-179 partner limits assumed): as the sequence (P00742 41-179 partner limits assumed) above

Structure (SMILES): COC(=O)C(Cc1cccc(C(=N)N)c1)[C@@H](C)NC(=O)c1ccc(-c2cc[n+]([O-])cc2)cc1 (mixture of isomers) [Otamixaban, (2R,3R)-2-(3-Carbamimidoyl-benzyl)-3-[4-(1-oxy-pyridin-4-yl)benzoylamino]-butyric acid methyl ester]
- inhibition of free factor Xa (free factor Xa): inhibited
- inhibition of factor Xa assembled in the prothrombinase complex [1]: inhibited
- efficacy in model of thrombosis (thrombosis [2]): highly efficacious
- efficacy in model of thrombosis (thrombosis [3]): highly efficacious
- efficacy in model of thrombosis (thrombosis [4]): highly efficacious
- reduction of prothrombin fragments 1+2 versus unfractionated heparin [5]: significantly more than unfractionated heparin
- factor Xa inhibition in patients (factor Xa): dose-dependent, rapid direct factor Xa inhibition
